Where two headings read alike, the source gives them in different places.
Legend:
[1] = system: retroviral vector pWET-TAC ψ2; experiment: Infection of NIH-3T3 cells by retroviral vector pWeT-TAC ψ2, count of G418-resistant colonies; type: cell-based; conditions: for inhibition at 1000 µM / activity at 1000 µM: 1mM; for activity at 1000 µM / activity at 3000 µM / activity at 2000 µM: read-out: % of control colonies counted; for inhibition of G418-resistant colony formation (in words): concentrations of Table 1 (1mM to 3mM); for inhibition at 3000 µM / activity at 3000 µM: 3mM; for inhibition at 2000 µM / activity at 2000 µM: 2mM
[2] = system: integration of foreign DNA into the genome; conditions: calcium phosphate mediated DNA transfection; cited from earlier work
MPSV^28 [3] = experiment: Southern hybridisation of genomic DNA of NIH/3T3 cells after infection with MPSV^28; type: cell-based, murine myeloproliferative sarcoma virus; conditions: 2mM, most obvious at 24 and 48 hours after infection
MPSV^28 [4] = experiment: Dot-blot analysis of high molecular weight DNA of HL-60 cells after infection with MPSV^28; type: cell-based, murine myeloproliferative sarcoma virus; conditions: 1.5mM, 72 hours after infection
Procedure: In this case cells were pretreated with 0.4% DMSO and […] polybrene for 24 hours. At the time of infection this medium was removed and fresh medium containing the same concentration of DMSO and polybrene, plus 5 x 10^5 c.f.u. of the vector were added to 10^7 cells either in the presence (+) or absence (-) of the inhibitor (5 x 10^6 cells for each condition). 24 hours after infection the medium was removed and cells were placed in fresh medium containing no DMSO or polybrene. Cells were incubated in this medium for another 48 hours before being harvested (approximately 2 x 10^7 cells with, and 2 x 10^7 without the inhibitor).

T-cell adapted HIV-1 = experiment: microbe, parasite or virus in culture; type: cell-based; conditions: for minimal effective concentration: Human immunodeficiency virus 1, T-cell, 336 h, read-out: Minimum Antiviral Concentration; for Therapeutic Index: T-Cell Line with T-virus; for antiviral activity (P24 antigen level in supernatant): virus T and the T-cell line, Day 14
monocyte adapted HIV-1 = experiment: microbe, parasite or virus in culture; type: cell-based; conditions: for minimal effective concentration: Human immunodeficiency virus 1, Monocyte, 336 h, read-out: Minimum Antiviral Concentration; for Therapeutic Index: PBMC's with M-virus, * partial inhibition only; for virus production (P24 antigen level in supernatant): virus M and PBMC's, Day 14, all concentrations tested
in vitro [5] = conditions: human, t-cell line
in vitro [6] = conditions: human, pbmc
[7] = system: AZT-resistant HIV isolate; type: cell-based, HIV-1
[8] = system: monocyte adapted laboratory strain of HIV; type: cell-based, HIV-1; conditions: monocyte line, Day 7
[9] = system: phytohaemagglutinin (PHA) stimulated peripheral blood mononuclear cells (PBMC); experiment: Cell toxicity assay, trypan blue exclusion (Example 6), PBMC; conditions: 150µM; PBMC's; Days 1, 6 and 10
[10] = system: continuous human T-cell line; experiment: Cell toxicity assay, trypan blue exclusion (Example 6), T-cell line; conditions: 150µM, Days 1, 6 and 10
in vitro [11] = conditions: human
vaccinia virus = conditions: BSC40 cells, 24 hours at 37°C, cited from earlier work
[12] = NIH3T3, NIH-3T3, G418-resistant colonies, read-out: % inhibition achieved
[13] = NIH3T3, NIH-3T3, G418-resistant colonies

**Q.** What does the source list for `NC(=O)c1cccc(NC=O)c1` [3-N-formylaminobenzamide]?
**A.** inhibition at 1000 µM [1, 12]: 64%; activity at 1000 µM [1, 13]: 36%; inhibition of G418-resistant colony formation (in words) [1]: even greater inhibition

**Q.** Which “inhibition of the formation of G418 resistant colonies” value ([1]; 1mM inhibitor) does the source give for `NC(=O)c1cccc(N)c1` [3-aminobenzamide] here?
**A.** Its value is “small degree of inhibition”.

**Q.** And the inhibition at 3000 µM [1, 12]?
**A.** The inhibition at 3000 µM was 45%.

**Q.** And the activity at 3000 µM [1, 13]?
**A.** Its activity at 3000 µM is 55%.

**Q.** And the inhibition at 3000 µM ([1]; NIH3T3, read-out: inhibition of the formation of G418 resistant colonies)?
**A.** The inhibition at 3000 µM was 50%.

**Q.** And the inhibition at 5000 µM ([1]; NIH3T3, 5mM, read-out: inhibition of the formation of G418 resistant colonies)?
**A.** Its inhibition at 5000 µM is 60%.

**Q.** What about the “inhibition of G418-resistant colony formation (in words)” value (“inhibition … (in words)” below) [1] of the same compound?
**A.** The value was “significant degree of inhibition”.

**Q.** What about the “integration of foreign DNA into the genome” value [2] of the same compound?
**A.** The value was “blocked”.

**Q.** With `Nc1cccc(C(=O)O)c1` [3-aminobenzoic acid, reference compound] as the compound, how does the inhibition at 3000 µM [1, 12] read?
**A.** The inhibition at 3000 µM was 10%.

**Q.** And the activity at 3000 µM [1, 13]?
**A.** The activity at 3000 µM was 90%.

**Q.** What about the “inhibition … (in words)” value [1] of the same compound?
**A.** The value was “did not inhibit”.

**Q.** With `COc1cccc(C(N)=O)c1` [3-methoxybenzamide] as the compound, how does the inhibition at 2000 µM [1, 12] read?
**A.** The inhibition at 2000 µM was 82%.

**Q.** And the activity at 2000 µM [1, 13]?
**A.** Its activity at 2000 µM is 18%.

**Q.** And the “inhibition … (in words)” value [1]?
**A.** Its value is “very effective”.

**Q.** What about the “appearance of complete proviral DNA in the genomic DNA” value (MPSV^28 [3]) of the same compound?
**A.** Its value is “inhibited”.

**Q.** And the “appearance of the proviral DNA” value (MPSV^28 [4])?
**A.** The value was “inhibited”.

**Q.** What about the minimal effective concentration (T-cell adapted HIV-1) of the same compound?
**A.** The minimal effective concentration was 0.19 µM.

**Q.** What about the “Therapeutic Index” value (T-cell adapted HIV-1) of the same compound?
**A.** Its value is >15 800.

**Q.** What about the “antiviral activity (P24 antigen level in supernatant)” value (T-cell adapted HIV-1) of the same compound?
**A.** The value was “showed particular activity”.

**Q.** What about the minimal effective concentration (monocyte adapted HIV-1) of the same compound?
**A.** The minimal effective concentration was 0.19 µM.

**Q.** What about the “Therapeutic Index” value (monocyte adapted HIV-1) of the same compound?
**A.** The value was >15 800*.

**Q.** What about the “virus production (P24 antigen level in supernatant)” value (monocyte adapted HIV-1) of the same compound?
**A.** The value was “partially inhibited virus production”.

**Q.** And the “integration of foreign DNA into the genome” value [2]?
**A.** The value was “blocked”.

**Q.** And the MNTC (in vitro [5])?
**A.** The MNTC was 3 mM.

**Q.** And the MNTC (in vitro [6])?
**A.** Its MNTC is 3 mM.

**Q.** Which inhibition at 3000 µM [1, 12] does the source give for `NC(=O)c1ccc(N)cc1` [4-aminobenzamide, reference compound] here?
**A.** The inhibition at 3000 µM was 12%.

**Q.** What about the activity at 3000 µM [1, 13] of the same compound?
**A.** Its activity at 3000 µM is 88%.

**Q.** And the “inhibition … (in words)” value [1]?
**A.** Its value is “did not inhibit”.

**Q.** Which results are given for `NC(=O)c1ccc(NC=O)cc1` [4-formylaminobenzamide, reference compound]?
**A.** inhibition at 1000 µM [1, 12]: 8%; activity at 1000 µM [1, 13]: 92%; inhibition of G418-resistant colony formation (in words) [1]: did not inhibit

**Q.** What does the source list for `COc1ccc(C(N)=O)cc1` [4-methoxybenzamide, reference compound]?
**A.** inhibition at 2000 µM [1, 12]: 15%; activity at 2000 µM [1, 13]: 85%; inhibition of G418-resistant colony formation (in words) [1]: did not inhibit

**Q.** What does the source list for `Cc1cn([C@H]2C[C@H](N=[N+]=[N-])[C@@H](CO)O2)c(=O)[nH]c1=O` [AZT, 3'-azido-2',3'-dideoxythymidine, reference compound]?
**A.** minimal effective concentration (T-cell adapted HIV-1): 0.007 µM; Therapeutic Index (T-cell adapted HIV-1): 142 900; antiviral activity (P24 antigen level in supernatant) (T-cell adapted HIV-1): inhibited virus with a good dose response; minimal effective concentration (monocyte adapted HIV-1): 0.007 µM; Therapeutic Index (monocyte adapted HIV-1): 142 900; virus production (P24 antigen level in supernatant) (monocyte adapted HIV-1): inhibited virus with a good dose response; virus inhibition (supernatant p24 antigen) [7]: inhibited completely; virus suppression (supernatant p24 antigen) [7]: did not suppress the virus; antiviral activity (supernatant p24 antigen) ([8]; 0.15µM): significant antiviral activity; MNTC (in vitro [5]): 1 mM; MNTC (in vitro [6]): 1 mM; toxicity (viable counts) [9]: non-toxic; toxicity (viable counts) [10]: non-toxic

**Q.** For `O=C1NC(CCCl)Oc2ccccc21` (stereo not drawn) [Chlorthenoxazine, chlorthenoxazine], which “antiviral activity (supernatant p24 antigen)” value ([7]; 0.15µM, PBMC's, Day 7, no smooth dose response) is on record?
**A.** The value was “possibly active”.

**Q.** And the “antiviral activity (supernatant p24 antigen)” value ([8]; concentrations tested 150 to 0.015µM)?
**A.** Its value is “active and has a clear dose response”.

**Q.** And the viability at 336 h (in vitro [11])?
**A.** The viability at 336 h was greater than 50%.

**Q.** What does the source list for `NC(=O)c1cccnc1` [nicotinamide]?
**A.** viral replication (vaccinia virus; 20mM): affected; decrease of viral replication (vaccinia virus; 60mM): greater than 99%

— patent publication EP0531370B1, “INHIBITION OF VIRAL INFECTION” (priority 1990, dated 1991)
